The values that follow come from ChEMBL document CHEMBL5620440, “Anti-trypanosomal Lignans Isolated from Salvadoran Peperomia pseudopereskiifolia” (J Nat Prod, 2024).

The source made the active and inactive calls. The calls are words filed in the database; no cut-off is given here.

For data set [1], the system named is Trypanosoma cruzi. Description: Antitrypanosomal activity against Trypanosoma cruzi Tulahuen amastigotes infected in human HT-1080 cells assessed as reduction in parasite growth by microscopic analysis. Format: functional, organism-based.
The nature of data set [2]: Cytotoxicity against human HT-1080 cells assessed reduction in cell viability. Type of data set: toxicity, cell-based.
A short description of data set [3]: Selectivity index, ratio of CC50 for cytotoxicity for human HT-1080 cells to IC50 for antitrypanosomal activity against Trypanosoma cruzi Tulahuen infected in human HT-1080 cells. Format: toxicity, cell-based. The note with it: read-out: Ratio CC50/IC50.
Data set [4] deals with Trypanosoma cruzi. As to the kind of experiment: Potency index, ratio of benznidazole IC50 to test compound IC50 for antitrypanosomal activity against Trypanosoma cruzi Tulahuen amastigotes infected in human HT-1080 cells assessed as reduction in parasite growth by microscopic analysis. Format: functional.

In the case of `COc1ccc([C@@H](O)[C@H]2CO[C@@H](c3ccc(OCc4ccccc4)c(OC)c3)[C@@H]2COC(C)=O)cc1OC`, the IC50 in the data set with Trypanosoma cruzi [1] was 2.8 µM. This compound also came in with a cytotoxic concentration (CC50) in data set [2] above 100 µM. The selectivity ratio in data set [3] was above 35.7.
As for `CCOc1ccc([C@@H]2OC[C@H](C(=O)c3ccc(OC)c(OC)c3)[C@H]2COC(C)=O)cc1OC`, in the data set on Trypanosoma cruzi [1], the outcome was inactive.
For the compound `O=C(Cn1ccnc1[N+](=O)[O-])NCc1ccccc1` [BENZNIDAZOLE], the IC50 in the data set on Trypanosoma cruzi [1] was 1.1 µM. The CC50 in data set [2] was above 100 µM. Besides, the selectivity ratio in data set [3] was above 90.9.
Turning to `CCOc1ccc([C@@H]2OC[C@H]([C@H](O)c3ccc(OC)c(OC)c3)[C@H]2COC(C)=O)cc1OC`, the IC50 with Trypanosoma cruzi [1] was 3.3 µM. Further, in data set [2], the CC50 is above 100 µM. In addition, the selectivity ratio in data set [3] was above 30.3.
In the case of `COc1ccc([C@@H](O)[C@H]2CO[C@@H](c3ccc(OC)c(OC)c3)[C@@H]2COC(C)=O)cc1OC`, in the data set with Trypanosoma cruzi [1], the IC50 came out at 10.5 µM. For the same compound, the CC50 in data set [2] was above 100 µM. For the same compound, the selectivity ratio in data set [3] is above 9.52.
For `COc1ccc([C@@H](O)[C@H]2CO[C@@H](c3ccc(OC)c(OC)c3)[C@@H]2CO)cc1OC`, the outcome in the data set on Trypanosoma cruzi [1] was inactive.
Take `COc1c([C@H]2OC[C@H]3[C@H]2CO[C@@H]3c2ccc3c(c2)OCO3)ccc2c1OCO2`: the half-maximal inhibitory concentration (IC50) in the data set with Trypanosoma cruzi [1] was 0.4 µM. In data set [2], this compound returned a CC50 above 100 µM. In addition, the “Ratio IC50” value in the data set on Trypanosoma cruzi [4] was around 3. The selectivity ratio in data set [3] was above 250.
For the compound `COc1cc([C@@H]2OC[C@H]([C@H](O)c3ccc(OC)c(OC)c3)[C@H]2CO)ccc1O`, the result in the data set on Trypanosoma cruzi [1] was inactive.
As for `COc1cc([C@@H]2OC[C@H]([C@H](O)c3ccc(OC)c(OC)c3)[C@H]2COC(C)=O)ccc1O`, the outcome in the data set with Trypanosoma cruzi [1] was inactive.
